Results published in US20250197374A1, “WEE1 DEGRADING COMPOUNDS AND USES THEREOF” (BRISTOL-MYERS SQUIBB COMPANY, priority 2023, published 2025).

Target: T1, WEE1 (Homo sapiens, UniProt P30291+Q96SW2)
T1 construct: C-terminal ePL-tagged (DiscoverX, Fremont, CA) full-length WEE1 expression construct; expressed in transfected cells; host or cells: LentiX-HEK293T (Invitrogen), lentivirally transduced; the cells also over-express GSPT1-GN
Experiment: WEE1-ePL degradation assay (293T-LentiX, InCELL Hunter luminescence, 4 hr)
Format: cell-based
Settings: for 293T-LentiX WEE1-ePL Degradation 4 hr YMin (%): lower limit of fit, % of DMSO control signal remaining; for DC50: LentiX-HEK293T cells expressing WEE1-ePL, 4 hr incubation, read-out: 293T-LentiX WEE1-ePL Degradation 4 hr EC50
Text: To generate LentiX-WEE1-ePL-GSPT1-ND cells for the WEE1 degradation assay, LentiX-HEK293T (Invitrogen) were tranduced by lentivirus with a C-terminal ePL-tagged (DiscoverX, Fremont, CA) full-length WEE1 expression construct. A separate lentiviral construct was introduced to over-express a mutated form of GSPT1 (NP_002085), termed GSPT1-GN, which contains a G575N mutation and is further truncated in the first 158 amino acids. GSPT1-GN is functional but not degradable by Cereblon. Cells were selected and maintained in complete DMEM media (DMEM, 10% Heat Inactivated FBS, 400 μg/mL Geneticin, and 1 μg/mL puromycin at 37 C and 5% CO2). Cells were passaged every 3-4 days by reseeding 1×10^6 cells in a T150 flask.
Cells were dispensed into 384-well white plates (Corning #3570, NY) that were pre-spotted with compounds using an acoustic dispenser (Echo acoustic transfer system, Beckman Coulter Life Sciences, Carlsbad, CA) as a 10-point dose-response curve with a 3-fold dilution starting at either 1 uM or 10 uM and including a DMSO control. Twenty-five microliters of media containing 2500 cells for LentiX-oeWEE1-ePL was dispensed per well. Assay plates were incubated at 37° C. with 5% CO2 for four hours (WEE1) After incubation, 25 μL of the InCELL Hunter™ Detection Reagent Working Solution (DiscoverX, Fremont, CA) was added to each well and incubated at room temperature for 30 minutes protected from light. After 30 minutes, luminescence was read on a PHERAstar luminometer (Cary, NC).
To determine the half-maximal effective concentration (EC50) values for WEE1-ePL degradation, a four parameter logistic model was used: (Sigmoidal Dose-Response Model) (FIT=(A+((B−A)/1+((C/x)^D)))) where C is the inflection point (EC50), D is the Hill slope, and A and B are the low and high limits of the fit respectively). The lower limit of the fit (value A) is referred to as Ymin. […] The maximum limit constraint, Ymax, is similarly derived using DMSO control. The curves were processed and evaluated using Activity Base (IDBS, Alameda, CA) or using Dotmatics (Boston, MA).

T1 sequence (P30291 whole entry): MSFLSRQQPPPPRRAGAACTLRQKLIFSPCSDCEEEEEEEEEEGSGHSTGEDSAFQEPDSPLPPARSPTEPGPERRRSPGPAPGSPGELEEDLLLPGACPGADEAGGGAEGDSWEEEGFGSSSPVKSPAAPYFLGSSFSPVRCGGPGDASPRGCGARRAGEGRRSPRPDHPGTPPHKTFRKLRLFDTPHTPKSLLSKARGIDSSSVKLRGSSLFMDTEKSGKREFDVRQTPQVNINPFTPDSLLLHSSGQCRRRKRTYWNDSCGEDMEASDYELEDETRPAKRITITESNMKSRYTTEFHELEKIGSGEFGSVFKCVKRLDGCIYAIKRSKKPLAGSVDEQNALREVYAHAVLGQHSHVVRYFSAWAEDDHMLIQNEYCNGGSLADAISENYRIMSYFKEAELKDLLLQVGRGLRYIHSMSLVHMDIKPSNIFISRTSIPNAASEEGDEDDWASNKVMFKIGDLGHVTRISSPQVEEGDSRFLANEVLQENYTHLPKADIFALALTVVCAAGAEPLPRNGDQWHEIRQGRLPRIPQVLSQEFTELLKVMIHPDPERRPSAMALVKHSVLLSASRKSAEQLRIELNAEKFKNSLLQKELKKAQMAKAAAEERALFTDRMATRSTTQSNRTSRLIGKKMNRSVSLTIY
T1 sequence (Q96SW2 whole entry): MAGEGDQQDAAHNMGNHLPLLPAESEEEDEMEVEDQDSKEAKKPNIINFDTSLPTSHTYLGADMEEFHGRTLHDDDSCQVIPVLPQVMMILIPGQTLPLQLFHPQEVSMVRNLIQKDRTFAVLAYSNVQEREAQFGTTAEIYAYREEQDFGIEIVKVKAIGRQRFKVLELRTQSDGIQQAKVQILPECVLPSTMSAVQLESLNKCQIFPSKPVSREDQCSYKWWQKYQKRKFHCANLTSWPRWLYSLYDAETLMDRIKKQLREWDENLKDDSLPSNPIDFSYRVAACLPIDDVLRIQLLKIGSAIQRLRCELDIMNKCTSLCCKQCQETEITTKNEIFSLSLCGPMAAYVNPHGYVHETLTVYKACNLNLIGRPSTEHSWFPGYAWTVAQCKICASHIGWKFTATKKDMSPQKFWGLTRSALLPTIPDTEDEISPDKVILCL
T1 sequence (Q16531 whole entry partner): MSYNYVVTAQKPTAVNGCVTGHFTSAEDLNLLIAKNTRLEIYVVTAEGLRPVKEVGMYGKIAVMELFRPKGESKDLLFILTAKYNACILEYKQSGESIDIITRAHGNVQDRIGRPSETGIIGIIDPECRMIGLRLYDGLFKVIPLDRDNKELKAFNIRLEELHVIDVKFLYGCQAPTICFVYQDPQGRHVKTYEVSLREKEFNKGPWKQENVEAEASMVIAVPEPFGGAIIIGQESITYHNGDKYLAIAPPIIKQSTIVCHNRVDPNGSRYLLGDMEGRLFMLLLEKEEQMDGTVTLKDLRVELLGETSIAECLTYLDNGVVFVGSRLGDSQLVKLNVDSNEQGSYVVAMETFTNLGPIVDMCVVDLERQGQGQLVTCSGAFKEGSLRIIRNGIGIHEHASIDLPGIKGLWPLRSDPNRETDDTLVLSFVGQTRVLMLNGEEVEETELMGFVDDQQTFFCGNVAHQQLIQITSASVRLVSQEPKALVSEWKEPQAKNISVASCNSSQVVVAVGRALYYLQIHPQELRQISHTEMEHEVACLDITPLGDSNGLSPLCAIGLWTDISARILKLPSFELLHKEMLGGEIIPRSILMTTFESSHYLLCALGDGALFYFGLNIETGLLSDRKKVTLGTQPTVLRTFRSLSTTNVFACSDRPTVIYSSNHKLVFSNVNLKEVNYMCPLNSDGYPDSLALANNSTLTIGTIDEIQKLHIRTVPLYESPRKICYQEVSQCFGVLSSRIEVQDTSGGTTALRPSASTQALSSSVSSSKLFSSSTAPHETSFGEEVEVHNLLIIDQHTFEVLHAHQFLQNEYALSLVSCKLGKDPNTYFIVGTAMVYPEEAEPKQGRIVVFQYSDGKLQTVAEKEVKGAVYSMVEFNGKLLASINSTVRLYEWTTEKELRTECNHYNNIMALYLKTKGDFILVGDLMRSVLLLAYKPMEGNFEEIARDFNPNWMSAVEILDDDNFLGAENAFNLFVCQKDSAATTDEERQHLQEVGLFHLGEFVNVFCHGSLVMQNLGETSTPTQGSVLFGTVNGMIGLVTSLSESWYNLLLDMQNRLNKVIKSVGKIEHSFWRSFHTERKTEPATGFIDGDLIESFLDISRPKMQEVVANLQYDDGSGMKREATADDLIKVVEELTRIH

Row | Compound | 293T-LentiX WEE1-ePL Degradation 4 hr YMin (%) | DC50 [nM]
1 | Cc1cc([C@@H]2CN(Cc3cc(F)c4nc(C5CCOCC5)ccc4c3)C[C@H]2Oc2ccc3c(c2)CN([C@H]2CCC(=O)NC2=O)C3=O)ccn1 (relative stereo) [Example 126, (3S)-3-(5-{[(3S*,4R*)-1-{[8-fluoro-2-(oxan-4-yl)quinolin-6-yl]methyl}-4-(2-methylpyridin-4-yl)pyrrolidin-3-yl]oxy}-1-oxo-2,3-dihydro-1H-isoindol-2-yl)piperidine-2,6-dione] | 90.0 | –
2 | CC(C)(C)C[C@@H]1CN(Cc2cc(F)c3nc(C4CCOCC4)ccc3c2)C[C@H]1Oc1ccc2c(c1)CN([C@H]1CCC(=O)NC1=O)C2=O (relative stereo) [Example 131, (3S)-3-(5-{[(3S*,4R*)-4-(2,2-dimethylpropyl)-1-{[8-fluoro-2-(oxan-4-yl)quinolin-6-yl]methyl}pyrrolidin-3-yl]oxy}-1-oxo-2,3-dihydro-1H-isoindol-2-yl)piperidine-2,6-dione] | 100.0 | –
3 | O=C1CCC(N2Cc3cc(O[C@@H]4CN(Cc5cc(F)c6nc(C7CCOCC7)ccc6c5)C[C@H]4OC4COC4)ccc3C2=O)C(=O)N1 (relative stereo) [Example 133, rel-3-(5-(((3R,4R)-1-((8-fluoro-2-(tetrahydro-2H-pyran-4-yl)quinolin-6-yl)methyl)-4-(oxetan-3-yloxy)pyrrolidin-3-yl)oxy)-1-oxoisoindolin-2-yl)piperidine-2,6-dione] | 58.0 | 70
4 | CC(C)(C)C[C@H]1CN(Cc2cc(F)c3nc(C4CCOCC4)ccc3c2)C[C@@H]1Oc1ccc2c(c1)CN([C@H]1CCC(=O)NC1=O)C2=O (relative stereo) [Example 150, (3S)-3-(5-{[(3R*,4S*)-4-(2,2-dimethylpropyl)-1-{[8-fluoro-2-(oxan-4-yl)quinolin-6-yl]methyl}pyrrolidin-3-yl]oxy}-1-oxo-2,3-dihydro-1H-isoindol-2-yl)piperidine-2,6-dione] | 48.5 | 10
5 | Cc1cc([C@H]2CN(Cc3cc(F)c4nc(C5CCOCC5)ccc4c3)C[C@@H]2Oc2ccc3c(c2)CN([C@H]2CCC(=O)NC2=O)C3=O)ccn1 (relative stereo) [Example 151, (3S)-3-(5-{[(3R*,4S*)-1-{[8-fluoro-2-(oxan-4-yl)quinolin-6-yl]methyl}-4-(2-methylpyridin-4-yl)pyrrolidin-3-yl]oxy}-1-oxo-2,3-dihydro-1H-isoindol-2-yl)piperidine-2,6-dione] | 22.4 | 11
6 | O=C1CCC(N2Cc3cc(O[C@H]4CN(Cc5cc(F)c6nc(C7CCOCC7)ccc6c5)C[C@@H]4OC4COC4)ccc3C2=O)C(=O)N1 (relative stereo) [Example 152, rel-3-(5-(((3S,4S)-1-((8-fluoro-2-(tetrahydro-2H-pyran-4-yl)quinolin-6-yl)methyl)-4-(oxetan-3-yloxy)pyrrolidin-3-yl)oxy)-1-oxoisoindolin-2-yl)piperidine-2,6-dione] | 82.2 | –
7 | COC[C@@H]1CN(Cc2ccc3ncc(N4CCOCC4)cc3c2F)C[C@H]1Oc1ccc2c(c1)CN([C@H]1CCC(=O)NC1=O)C2=O [Example 31, (3S)-3-(5-{[(3S,4S)-1-{[5-fluoro-3-(morpholin-4-yl)quinolin-6-yl]methyl}-4-(methoxymethyl)pyrrolidin-3-yl]oxy}-1-oxo-2,3-dihydro-1H-isoindol-2-yl)piperidine-2,6-dione] | 20.1 | –
8 | COC[C@@H]1CN(Cc2cc(F)c3cc(N4CCOCC4)ncc3c2)C[C@H]1Oc1ccc2c(c1)CN([C@H]1CCC(=O)NC1=O)C2=O [Example 49, (3S)-3-(5-{[(3S,4S)-1-{[5-fluoro-3-(morpholin-4-yl)isoquinolin-7-yl]methyl}-4-(methoxymethyl)pyrrolidin-3-yl]oxy}-1-oxo-2,3-dihydro-1H-isoindol-2-yl)piperidine-2,6-dione] | 24.5 | 2
9 | COC[C@@H]1CN(Cc2ccc3nc(N4CCN(C(C)=O)C5(COC5)C4)ncc3c2)C[C@H]1Oc1ccc2c(c1)CN([C@H]1CCC(=O)NC1=O)C2=O [Example 95, (3S)-3-(5-{[(3S,4S)-1-[(2-{5-acetyl-2-oxa-5,8-diazaspiro[3.5]nonan-8-yl}quinazolin-6-yl)methyl]-4-(methoxymethyl)pyrrolidin-3-yl]oxy}-1-oxo-2,3-dihydro-1H-isoindol-2-yl)piperidine-2,6-dione] | 20.9 | 2
10 | COC[C@@H]1CN(Cc2cc(F)c3nc(C)c(N4CCOCC4)cc3c2)C[C@H]1Oc1ccc2c(c1)CN([C@H]1CCC(=O)NC1=O)C2=O [Example 100, (3S)-3-(5-{[(3S,4S)-1-{[8-fluoro-2-methyl-3-(morpholin-4-yl)quinolin-6-yl]methyl}-4-(methoxymethyl)pyrrolidin-3-yl]oxy}-1-oxo-2,3-dihydro-1H-isoindol-2-yl)piperidine-2,6-dione] | 24.6 | 1
11 | COC[C@@H]1CN(Cc2ccc3cc(N4CCOCC4)cnc3c2F)C[C@H]1Oc1ccc2c(c1)CN([C@H]1CCC(=O)NC1=O)C2=O [Example 101, (3S)-3-(5-{[(3S,4S)-1-{[8-fluoro-3-(morpholin-4-yl)quinolin-7-yl]methyl}-4-(methoxymethyl)pyrrolidin-3-yl]oxy}-1-oxo-2,3-dihydro-1H-isoindol-2-yl)piperidine-2,6-dione] | 33.0 | 3
12 | COC[C@@H]1CN(Cc2cc3ccc(N4CCN(C(C)=O)CC4)cc3c(F)n2)C[C@H]1Oc1ccc2c(c1)CN([C@H]1CCC(=O)NC1=O)C2=O [Example 124, (3S)-3-(5-{[(3S,4S)-1-{[7-(4-acetylpiperazin-1-yl)-1-fluoroisoquinolin-3-yl]methyl}-4-(methoxymethyl)pyrrolidin-3-yl]oxy}-1-oxo-2,3-dihydro-1H-isoindol-2-yl)piperidine-2,6-dione] | 25.4 | –
13 | O=C1CC[C@H](N2Cc3cc(O[C@@H]4CN(Cc5cc(F)c6nc(C7CCOCC7)ccc6c5)C[C@H]4OCC4CC4)ccc3C2=O)C(=O)N1 [Example 125, (3S)-3-(5-{[(3R,4R)-4-(cyclopropyl-methoxy)-1-{[8-fluoro-2-(oxan-4-yl)quinolin-6-yl]methyl}pyrrolidin-3-yl]oxy}-1-oxo-2,3-dihydro-1H-isoindol-2-yl)piperidine-2,6-dione] | 29.2 | 4
14 | CC(C)O[C@@H]1CN(Cc2cc(F)c3nc(C4CCOCC4)ccc3c2)C[C@H]1Oc1ccc2c(c1)CN([C@H]1CCC(=O)NC1=O)C2=O [Example 132, (3S)-3-(5-{[(3R,4R)-1-{[8-fluoro-2-(oxan-4-yl)quinolin-6-yl]methyl}-4-(propan-2-yloxy)pyrrolidin-3-yl]oxy}-1-oxo-2,3-dihydro-1H-isoindol-2-yl)piperidine-2,6-dione] | 44.9 | 5
15 | COC[C@@H]1CN(Cc2cc(F)c3nc(C4CCN(C5COC5)CC4)ncc3c2)C[C@H]1Oc1ccc2c(c1)CN([C@H]1CCC(=O)NC1=O)C2=O [Example 144, (3S)-3-(5-{[(3S,4S)-1-({8-fluoro-2-[1-(oxetan-3-yl)piperidin-4-yl]quinazolin-6-yl}methyl)-4-(methoxymethyl)pyrrolidin-3-yl]oxy}-1-oxo-2,3-dihydro-1H-isoindol-2-yl)piperidine-2,6-dione] | 21.4 | 3
